Assay results: EP0406111A1, “Substituted arylamines and heteroarylamines, process for their preparation and pharmaceutical composition containing them” (SOCIETE DE CONSEILS DE […] D'APPLICATIONS SCIENTIFIQUES …, priority 1989, dated 1991)

How the values were obtained:
recapture de la dopamine = biological target: T1, recapture de la dopamine (Rattus norvegicus, UniProt P23977); assay: Inhibition of (3H)DA reuptake in primary cultured neurons (Example 39); format: cell-based; conditions: for Recapture de (³H)DA nH (nombre de Hill) / IC50: cultured neurons from rat embryos; for IC50: 10⁻⁸M (3H)DA, 10 min at 37°C, read-out: Recapture de (³H)DA IC 50
T1 construct: Cultures primaires de neurones; endogenous in cells; host or cells: primary neurons from substantia nigra of 14-day rat embryos
Excerpt: (§1) Exemple 39 : Etude de l'inhibition de la recapture de la dopamine et de la noradrénaline sur des neurones en culture.
(§2) a) Cultures primaires de neurones.
(§3) La substance noire, structure riche en cellules dopaminergiques, ou le locus coeruleus, contenant les corps cellulaires noradrénergiques, sont disséqués à partir d'embryons de rats de 14 jours, âge auquel les cellules ont terminé leur mitose. Les cellules sont dissociées mécaniquement dans un milieu sans calcium ni magnésium.
(§4) L'ensemencement est réalisé dans des puits prétraités avec de la D-polylysine, à une densité de 150 000 cellules/puits, dans 400µl de milieu de culture composé de 70% de M.E.M.; 25% de Hanks; 5% de Nu-serum décomplémenté; plus 3% de D-glucose (1/20).
(§5) Le milieu de culture est renouvelé au tiers tous les trois jours, jusqu'à 9 jours de développement "in vitro", âge auquel les cellules paraissent matures. A cet âge, la culture ne présente pas encore de cellule gliales.
(§6) b) Test d'inhibition de la recapture de la dopamine et de la noradrénaline.
(§7) On pré-incube les cellules obtenues en a) pendand 15min, à la température ambiante, avec 40µl d'un tampon constitué par le Ringer Phosphate-disodique 5 mM pH=7,6 dont la composition en concentrations finales est la suivante : NaCl 120mM; CaCl₂ 2,6 mM; MgCl₂ 1,3 mM; KCl 5mM; D-glucose 3 mM; Na₂HPO₄5mM.
(§8) On incube ensuite pendant 10min à 37°C avec le même tampon en présence de (³H)Da ou de (³H)NA à une concentration finale 10⁻⁸M et une dilution isotopique de 1/5, et de concentrations croissantes en composé à tester dans un volume final de 400µl.
(§9) On rince ensuite trois fois rapidement avec 750µl du même tampon à 4°C, ce qui correspond à une durée totale de 10 secondes.
(§10) On récupère alors les cellules dans 2 fois 500µl de NaOH 0,5N et on détermine leur radioactivité par comptage avec 4ml de scintillant et 50µl d'acide acétique glacial.
Avant les rinçages, on a prélevé un aliquote de 100µl du milieu d'incubation et on a déterminé la radioactivité libre sur celui-ci par comptage avec 5ml de scintillant.
La recapture spécifique de la (³H)DA ou de (³H)NA est déduite de la différence entre la recapture totale et la diffusion passive pour chacun des composés testés.

[1] = biological target: recapture de la noradrénaline (Rattus norvegicus, UniProt Q63380); assay: Inhibition of (3H)NA reuptake in primary cultured neurons (Example 39); format: cell-based; conditions: for Recapture de (³H)NA nH (nombre de Hill): cultured neurons from rat embryos
Excerpt: as §1, §2, §3, §4, §5, §6, §7, §8, §9, §10
Avant les rinçages, on a prélevé un aliquote de 100µl du milieu d'incubation et on a déterminé la radioactivité libre sur celui-ci par comptage avec 5ml de scintillant. […]

T1 sequence (P23977 whole entry): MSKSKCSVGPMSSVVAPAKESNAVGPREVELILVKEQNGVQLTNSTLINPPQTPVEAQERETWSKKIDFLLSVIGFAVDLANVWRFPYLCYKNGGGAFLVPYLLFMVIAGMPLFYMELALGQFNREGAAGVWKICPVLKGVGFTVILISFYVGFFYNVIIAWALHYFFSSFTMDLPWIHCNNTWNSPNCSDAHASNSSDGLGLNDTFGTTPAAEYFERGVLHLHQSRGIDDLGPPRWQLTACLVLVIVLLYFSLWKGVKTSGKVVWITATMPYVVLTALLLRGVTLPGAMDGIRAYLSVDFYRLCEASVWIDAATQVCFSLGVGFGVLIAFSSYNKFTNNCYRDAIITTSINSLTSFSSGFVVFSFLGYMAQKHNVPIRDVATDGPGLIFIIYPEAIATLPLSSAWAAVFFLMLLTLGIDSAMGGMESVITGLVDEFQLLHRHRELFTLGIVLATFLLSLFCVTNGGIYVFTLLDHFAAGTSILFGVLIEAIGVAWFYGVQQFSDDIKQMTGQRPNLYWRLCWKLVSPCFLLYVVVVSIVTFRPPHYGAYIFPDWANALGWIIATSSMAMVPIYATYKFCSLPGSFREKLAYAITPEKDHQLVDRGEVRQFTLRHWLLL
Sequence of recapture de la noradrénaline (Q63380 1-617): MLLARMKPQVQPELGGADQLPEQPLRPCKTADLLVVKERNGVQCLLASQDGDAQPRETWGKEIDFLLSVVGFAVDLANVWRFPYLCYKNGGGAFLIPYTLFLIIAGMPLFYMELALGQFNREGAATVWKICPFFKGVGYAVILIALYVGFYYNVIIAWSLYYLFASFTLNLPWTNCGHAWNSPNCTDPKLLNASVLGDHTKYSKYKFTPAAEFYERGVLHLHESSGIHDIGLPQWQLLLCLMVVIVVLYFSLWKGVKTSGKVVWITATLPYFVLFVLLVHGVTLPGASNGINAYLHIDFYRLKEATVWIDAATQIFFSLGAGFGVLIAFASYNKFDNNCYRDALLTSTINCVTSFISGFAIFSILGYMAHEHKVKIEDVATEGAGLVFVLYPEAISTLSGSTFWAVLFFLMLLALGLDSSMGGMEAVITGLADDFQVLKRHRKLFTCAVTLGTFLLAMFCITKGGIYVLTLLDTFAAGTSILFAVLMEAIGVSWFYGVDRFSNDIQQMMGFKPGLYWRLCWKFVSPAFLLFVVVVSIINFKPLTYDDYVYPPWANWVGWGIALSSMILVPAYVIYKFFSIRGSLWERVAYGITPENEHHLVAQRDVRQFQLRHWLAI

SMILES | Recapture de (³H)DA nH (nombre de Hill) (recapture de la dopamine) | IC50 (recapture de la dopamine) | Recapture de (³H)NA nH (nombre de Hill) [1] | Recapture de la dopamine, result in words (recapture de la dopamine; cultured neurons) | Recapture de la noradrénaline, result in words ([1]; cultured neurons)
OC1CCN(C2(c3cc4ccccc4s3)CCCCC2)CC1 [composé 26, (benzo(b)thiophényl-2)-1( (ol-4-pipéridino)-1)-1 cyclohexane] | 1,09 | 17 nM |  |  | 
CC1CCCN(C2(c3cc4ccccc4s3)CCCCC2)C1 (stereo not drawn) [composé n^o 2, (benzo(b)thiophényl-2)-1 ((méthyl-3 pipéridino)-1)-1 cyclohexane] | 0,95 | 70 nM |  |  | 
C[C@H]1CC[C@@](c2cc3ccccc3s2)(N2CCCCC2)CC1 [composé n^o 21, (benzo(b)thiophényl-2)-1 c-méthyl-4-r-(pipéridino-1)-1 cyclohexane] | 1,07 | 8 nM |  |  | 
CCCN(CCC)C1(c2cc3ccccc3s2)CCCCC1 [composé no 3, (benzo(b)thiophényl-2)-1 (dipropylamino-1)-1 cyclohexane] |  |  | 0,85 |  | 
CC1CC(C)CN(C2(c3cc4ccccc4s3)CCCCC2)C1 (stereo not drawn) [composé n^o 6, (benzo(b)thiophényl-2)-1 ((diméthyl-3,5 pipéridino)-1)-1 cyclohexane] | 0,95 | 1.47 nM | 1,2 | inhibiteur très puissant | inhibiteur très puissant
